Source: publication PMC7324975 (BMC Cancer, 2020)

Columns and labels:
[1] = system: CT26 cells; assay: WST1 cell viability assay; format: cell-based, mice; settings: 24 h; for anti-tumor efficacy (cell viability), single use: C: 0 ~ 160 μM, R: 12.5 ~ 200 μM; for IC50: Mus musculus, WST1
Procedure: The mice colon cancer cell line, CT26, was provided by Johnpro Biotech (Taipei, Taiwan). The cells were maintained in ATCC-formulated RPMI-1640 Medium containing 10% heat-inactivated fetal bovine serum (FBS) and 1% antibiotic-antimycotic (GM) in a humidified incubator with 5% CO2 at 37 °C. […] The cell viability was determined through WST1 assay (Roche, Germany) after the 24-h treatment.

[2] = system: Caspase-3; assay: Western blot of Caspase-3 cleavage form; format: cell-based, mice; settings: CT26 cells, 3 h, single agents
Procedure: The CT26 cell lysates from the variety of the treatments were prepared using RIPA lysis buffer for immunoblotting of Cyclin D1 (Cell Signaling Technology, #92G2), Cyclin A (Santa Cruz Biotechnology, #sc-271,645), Hsp70 (Santa Cruz Biotechnology, #SC24), Caspase-3, and cleavage form of Caspase-3 (Cell Signaling Technology, #9662S). Western blot analysis was performed as previously reported.

IC50 [1] [µM] | SMILES | anti-tumor efficacy (cell viability), single use [1] | cleavage form of Caspase-3 [2]
26.8 ± 1.06 | COc1cc(/C=C/C(=O)CC(=O)/C=C/c2ccc(O)c(OC)c2)ccc1O [Curcumin, curcumin] | dose-dependent | increased
88.8 ± 1.07 | Oc1ccc(/C=C/c2cc(O)cc(O)c2)cc1 [Resveratrol, resveratrol] | dose-dependent | increased
